Assay results taken from patent US20200247800A1, “SUBSTITUTED BICYCLIC HETEROCYCLIC COMPOUNDS AS NADPH OXIDASE INHIBITORS” (Glenmark Pharmaceuticals S.A., priority 2017, published 2020).

Biological target: T1, human NOX4 (Homo sapiens, UniProt Q9NPH5)
T1 construct: expressed in transfected cells; membrane fraction used
T1 sequence (Q9NPH5 1-578): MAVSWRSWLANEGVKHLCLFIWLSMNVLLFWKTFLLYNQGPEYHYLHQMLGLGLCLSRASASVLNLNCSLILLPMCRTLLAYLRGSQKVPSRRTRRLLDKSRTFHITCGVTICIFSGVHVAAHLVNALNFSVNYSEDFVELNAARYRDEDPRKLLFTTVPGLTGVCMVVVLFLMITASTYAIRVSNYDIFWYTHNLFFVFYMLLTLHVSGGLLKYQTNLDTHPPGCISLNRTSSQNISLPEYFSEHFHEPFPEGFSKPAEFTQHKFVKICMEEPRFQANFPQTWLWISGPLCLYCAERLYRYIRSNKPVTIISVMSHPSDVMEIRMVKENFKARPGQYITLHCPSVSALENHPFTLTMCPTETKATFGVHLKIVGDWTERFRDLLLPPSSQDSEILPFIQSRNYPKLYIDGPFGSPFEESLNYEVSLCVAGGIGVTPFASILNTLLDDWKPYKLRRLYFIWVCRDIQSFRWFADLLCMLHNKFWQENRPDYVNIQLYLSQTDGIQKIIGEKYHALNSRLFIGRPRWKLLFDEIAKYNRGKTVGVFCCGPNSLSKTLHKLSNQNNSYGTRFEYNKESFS
T1 sequence (P13498 1-195 partner): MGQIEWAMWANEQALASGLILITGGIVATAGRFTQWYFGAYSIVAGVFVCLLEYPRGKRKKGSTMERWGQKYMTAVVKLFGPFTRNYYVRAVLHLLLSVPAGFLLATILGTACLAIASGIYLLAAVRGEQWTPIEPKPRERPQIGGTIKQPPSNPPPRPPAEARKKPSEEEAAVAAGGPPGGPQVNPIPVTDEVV
Assay: Cell free membrane based in vitro NOX4 assay: H2O2 production by membranes expressing human NOX4, measured with Amplex Red
Format: biochemical
Settings: for inhibition at 1 µM: 1.0 μM compound, read-out: Percentage inhibition at 1.0 μM; for inhibition at 10 µM: 10.0 μM compound, read-out: Percentage inhibition at 10.0 μM; for IC50: class symbols
Procedure: The inhibition of NOX4 activity was measured as inhibition of formation of reactive oxygen species (ROS) from oxygen in cell free assays. […] A cell free membrane based in vitro assay was developed by preparing membranes from cells stably overexpressing human NOX4. hNOX4/HEK stable cell line was generated in-house for this purpose. Membranes from stably transfected cells overexpressing human NOX4 were prepared by homogenizing the cells in buffer (20 mM HEPES, 1 mM EGTA, 0.5 mM DTT, 0.5% protease inhibitor cocktail, 1 mM PMSF, pH 7.6), followed by centrifugation at 160000 g for 30 min. Membrane fraction (pellet) was resuspended in storage buffer (homogenization buffer with 10% glycerol and 100 mM NaCl) and stored at −80° C. Protein concentration was determined by Bradford reagent. H202 production by membranes expressing human NOX4 was measured using Amplex Red (Invitrogen) by following a slightly modified version of the manufacturer's instruction manual. Briefly, membranes were incubated in assay buffer (25 mM HEPES, 0.12 M NaCl, 3 mM KCl, 1 mM MgCl2, pH 7.4) with Horse Radish Peroxidase (HRP) and Amplex Red. Reaction was started by addition of […] to the membrane mix. Antagonism of NOX4 inhibitors was measured by incubating the membrane with increasing concentrations of the inhibitors for 20 min on a plate shaker prior to addition of NADPH. H2O2 levels were measured for 10 min in a BMG Fluostar microplate reader with excitation and emission wavelengths of 544 nm and 590 nm respectively. Concentration response curves were plotted as a % of maximal response obtained in the absence of the inhibitor. IC50 value was calculated from concentration response curve by nonlinear regression analysis using GraphPad PRISM software.

Compound	inhibition at 1 µM [%]	inhibition at 10 µM [%]	IC50 [nM]
COc1ccc(Cl)c(-c2[nH]c3c(c(C(F)(F)F)nn3C)c(=O)c2O)c1 [Example 49, 6-(2-Chloro-5-methoxyphenyl)-5-hydroxy-1-methyl-3-(trifluoromethyl)-1,7-dihydro-4H-pyrazolo[3,4-b]pyridin-4-one]	100	100	> 150
Cn1nc(C(F)(F)F)c2c(=O)c(O)c(-c3cc(Cl)ccc3Cl)[nH]c21 [Example 50, 6-(2,5-Dichlorophenyl)-5-hydroxy-1-methyl-3-(trifluoromethyl)-1,7-dihydro-4H-pyrazolo[3,4-b]pyridin-4-one]	89.3	99.5	100 to 150
COc1ccc(-c2[nH]c3c(c(C(F)(F)F)nn3C)c(=O)c2O)c(OC)c1 [Example 51, 6-(2,4-Dimethoxyphenyl)-5-hydroxy-1-methyl-3-(trifluoromethyl)-1,7-dihydro-4H-pyrazolo[3,4-b]pyridin-4-one]	74.4	86.5	> 150
Cn1nc(C(F)(F)F)c2c(=O)c(O)c(-c3ccc(Cl)cc3F)[nH]c21 [Example 52, 6-(4-Chloro-2-fluorophenyl)-5-hydroxy-1-methyl-3-(trifluoromethyl)-1,7-dihydro-4H-pyrazolo[3,4-b]pyridin-4-one]	75.8	94.9	> 150
COc1ccc(-c2[nH]c3c(c(C(F)(F)F)nn3C)c(=O)c2O)cc1 [Example 53, 5-Hydroxy-6-(4-methoxyphenyl)-1-methyl-3-(trifluoromethyl)-1,7-dihydro-4H-pyrazolo[3,4-b]pyridin-4-one]	90.5	84.6	100 to 150
Cn1nc(C(F)(F)F)c2c(=O)c(O)c(-c3ccc(-n4ccnc4)cc3)[nH]c21 [Example 54, 5-Hydroxy-6-[4-(1H-imidazol-1-yl)phenyl]-1-methyl-3-(trifluoromethyl)-1,7-dihydro-4H-pyrazolo[3,4-b]pyridin-4-one]	92.1	94.5	100 to 150
Cn1nc(C(F)(F)F)c2c(=O)c(O)c(-c3ccncc3)[nH]c21 [Example 55, 5-Hydroxy-1-methyl-6-(pyridin-4-yl)-3-(trifluoromethyl)-1,7-dihydro-4H-pyrazolo[3,4-b]pyridin-4-one]	83.8	94.2	> 150
CCc1nn(C)c2[nH]c(-c3ccccc3Cl)c(O)c(=O)c12 [Example 56, 6-(2-Chlorophenyl)-3-ethyl-5-hydroxy-1-methyl-1,7-dihydro-4H-pyrazolo[3,4-b]pyridin-4-one]	82.4	69.8	< 50
Cn1nc2[nH]c(-c3ccccc3Cl)c(O)c(=O)c2c1Cc1ccccc1F [Example 57, 6-(2-Chlorophenyl)-3-(2-fluorobenzyl)-5-hydroxy-2-methyl-2,7-dihydro-4H-pyrazolo[3,4-b]pyridin-4-one]	21.9	13.5	–
Cn1nc2[nH]c(-c3ccccc3Cl)c(O)c(=O)c2c1-c1ccc(F)cc1 [Example 58, 6-(2-Chlorophenyl)-3-(4-fluorophenyl)-5-hydroxy-2-methyl-2,7-dihydro-4H-pyrazolo[3,4-b]pyridin-4-one]	36.7	51.2	–
Cc1c2c(=O)c(O)c(-c3ccccc3Cl)[nH]c2nn1C [Example 59, 6-(2-Chlorophenyl)-5-hydroxy-2,3-dimethyl-2,7-dihydro-4H-pyrazolo[3,4-b]pyridin-4-one]	41.1	38.8	–
Cc1cc2c(=O)c(O)c(-c3ccccc3Cl)[nH]c2s1 [Example 60, 6-(2-Chlorophenyl)-5-hydroxy-2-methylthieno[2,3-b]pyridin-4(7H)-one]	77	100	> 150
Cc1cc2c(=O)c(O)c(-c3ccc(F)c(C(F)(F)F)c3)[nH]c2s1 [Example 61, 6-[4-Fluoro-3-(trifluoromethyl)phenyl]-5-hydroxy-2-methylthieno[2,3-b]pyridin-4(7H)-one]	100	100	50 to 100
Cc1nc2c(=O)c(O)c(-c3ccccc3Cl)[nH]c2s1 [Example 62, 5-(2-Chlorophenyl)-6-hydroxy-2-methyl[1,3]thiazolo[5,4-b]pyridin-7(4H)-one]	39	98	> 150
O=c1c(O)c(-c2ccccc2Cl)[nH]c2sc(C(F)(F)F)nc12 [Example 63, 5-(2-Chlorophenyl)-6-hydroxy-2-trifluoromethyl[1,3]thiazolo[5,4-b]pyridin-7(4H)-one]	58.6	100	> 150
Cc1noc2[nH]c(-c3ccccc3Cl)c(O)c(=O)c12 [Example 64, 6-(2-Chlorophenyl)-5-hydroxy-3-methyl[1,2]oxazolo[5,4-b]pyridin-4(7H)-one]	68.8	100	> 150
COCCOc1ccc(-c2[nH]c3c(c(C)nn3C)c(=O)c2O)c(Cl)c1 [Example 65, 6-(2-Chloro-4-(2-methoxyethoxy)phenyl)-5-hydroxy-1,3-dimethyl-1H-pyrazolo[3,4-b]pyridin-4(7H)-one]	74.7	63.1	> 150
COCCOc1ccc(-c2[nH]c3c(c(C(F)(F)F)nn3C)c(=O)c2O)c(F)c1 [Example 66, 6-(2-Fluoro-4-(2-methoxyethoxy)phenyl)-5-hydroxy-1-methyl-3-(trifluoromethyl)-1H-pyrazolo[3,4-b]pyridin-4(7H)-one]	100	100	> 150
COc1cc(F)c(-c2[nH]c3c(c(C)nn3C)c(=O)c2O)c(F)c1 [Example 67, 6-(2,6-Difluoro-4-methoxyphenyl)-5-hydroxy-1,3-dimethyl-1H-pyrazolo[3,4-b]pyridin-4(7H)-one]	87.1	85.7	50 to 100
CCn1nc(C)c2c(=O)c(O)c(-c3c(F)cccc3F)[nH]c21 [Example 68, 6-(2,6-Difluorophenyl)-1-ethyl-5-hydroxy-3-methyl-1H-pyrazolo[3,4-b]pyridin-4(7H)-one]	84.3	80.3	50 to 100
CCn1nc(C)c2c(=O)c(O)c(-c3ccc(OC)cc3F)[nH]c21 [Example 69, 1-Ethyl-6-(2-fluoro-4-methoxyphenyl)-5-hydroxy-3-methyl-1H-pyrazolo[3,4-b]pyridin-4(7H)-one]	67.2	–	> 150
COc1ccc(-c2[nH]c3c(c(C)nn3CC(F)(F)F)c(=O)c2O)c(F)c1 [Example 70, 6-(2-Fluoro-4-methoxyphenyl)-5-hydroxy-3-methyl-1-(2,2,2-trifluoroethyl)-1H-pyrazolo[3,4-b]pyridin-4(7H)-one]	97.5	98.4	> 150
CCc1nn(C)c2[nH]c(-c3c(F)cccc3F)c(O)c(=O)c12 [Example 71, 6-(2,6-Difluorophenyl)-3-ethyl-5-hydroxy-1-methyl-1H-pyrazolo[3,4-b]pyridin-4(7H)-one]	81.5	79.3	< 50
